# According to PubChem BioAssay (NCI):
#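 Assay format: 96-well plates, 48-hour exposure. GI50 is the concentration that inhibits growth by half. TGI marks complete inhibition of growth.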
# Columns and labels:
# Experiment in all cases: inhibition of tumour cell growth, NCI panel, 48 h
# 786-0 renal = tested on: 786-0 renal
# BT-549 breast = tested on: BT-549 breast
# EKVX NSCLC = tested on: EKVX NSCLC
# HCT-116 colon = tested on: HCT-116 colon
# K-562 leukemia = tested on: K-562 leukemia
# LOX IMVI melanoma = tested on: LOX IMVI melanoma
# SNB-75 CNS = tested on: SNB-75 CNS
# T-47D breast = tested on: T-47D breast
# U251 CNS = tested on: U251 CNS
# UACC-62 melanoma = tested on: UACC-62 melanoma
SMILES,GI50 (786-0 renal) [µM],TGI (786-0 renal) [µM],GI50 (BT-549 breast) [µM],TGI (BT-549 breast) [µM],GI50 (EKVX NSCLC) [µM],TGI (EKVX NSCLC) [µM],GI50 (HCT-116 colon) [µM],TGI (HCT-116 colon) [µM],GI50 (K-562 leukemia) [µM],TGI (K-562 leukemia) [µM],GI50 (LOX IMVI melanoma) [µM],TGI (LOX IMVI melanoma) [µM],GI50 (SNB-75 CNS) [µM],TGI (SNB-75 CNS) [µM],GI50 (T-47D breast) [µM],TGI (T-47D breast) [µM],GI50 (U251 CNS) [µM],TGI (U251 CNS) [µM],GI50 (UACC-62 melanoma) [µM],TGI (UACC-62 melanoma) [µM]
Cc1sc(C)c(Cc2c(C)sc(C)c2CCl)c1CCl,> 100,> 100,> 100,> 100,> 100,> 100,> 100,> 100,23,> 100,> 100,> 100,51.5,> 100,> 100,> 100,> 100,> 100,–,–
O=C(Nc1ccc(F)cc1)c1c(NC(=O)C(F)(F)F)sc2c1CCCCC2,2.43,10.5,2.08,6.85,–,–,2.05,10.3,1.97,> 100,2.43,13.2,1.34,5.57,1.62,5.61,1.73,> 100,0.585,5.19
Cn1c(=O)c(Oc2ccccc2F)cc2cnc(NC3CCOCC3)nc21,> 25,> 25,> 25,> 25,–,–,> 25,> 25,> 25,> 25,> 25,> 25,> 19.8,> 25,> 25,> 25,> 25,> 25,> 25,> 25
Cc1cc(C)c(C[N+](C)(C)C)c(C)c1C,0.323,13.2,0.619,7.36,–,–,0.32,24.8,0.416,> 100,0.306,9.13,0.402,11.5,0.292,9.92,0.307,34.7,0.538,18.9
O=C(NCCCNc1cc(-c2cn(-c3ccccc3)nc2-c2cccc(O)c2)ccn1)c1ccccc1,2.04,4.69,2.72,9.47,3.16,> 100,3.58,17,–,–,2.25,6.36,1.68,46.9,1.57,6.89,4.12,21,3.15,12.2
C[C@]1(CO)[C@H]2CC[C@@]34C=C[C@@](CO)(CC[C@H]3[C@]2(C)CC[C@H]1O)C4,–,> 100,–,> 100,–,> 100,–,> 100,–,–,–,> 100,–,> 100,–,84.3,–,> 100,–,> 100
